Measurements reported in patent US10759835B2, “Monomeric streptavidin mutants, methods of using the same and processes of manufacturing proteins” (The Research Foundation for The State University of New York, priority 2016, dated 2020).

Experiment: Fluorescence polarization spectroscopy, biotin dissociation rate (koff)
Type: binding
Conditions: 37° C.
Procedure: FIG. 4. In vitro characterization of purified mSA mutants. a) Stability of mSA-RF and mSA-RWT in PBS was measured by circular dichroism spectroscopy with or without biotin. b) Fluorescence polarization spectroscopy was used to measure the dissociation rate of biotin-fluorescein. The dissociation rate, koff, was computed by fitting normalized fluorescence polarization data, or bound fraction f, to an exponentially decaying function, i.e. ƒ=e^−k^off^*t The measurements were taken at 37° C. c) The equilibrium affinity of binding Kd between mSA-RF and biotin-fluorescein was measured by FP. d) mSA-S25H and mSA-RF were analyzed by size exclusion chromatography to estimate their molecular weights in solution. […]
The binding of biotinylated fluorescein (bf, AnaSpec) was measured using a microplate reader (SpectraMax® i3 Microplate reader from Molecular Devices) in flat bottom 96 well plates (Sterilin Ltd). […] After overnight incubation at room temperature, the fluorescence polarization values were measured and fit to the quadratic binding equation (Hsu and Park, 2010, J Mol Graph Model, 29, 295-308). […] To observe dissociation of bf, excess free biotin was added to a final concentration of 100 μM and recording of fluorescence was started immediately. The intensity of polarized fluorescence was measured at various time points and normalized with respect to the value at t=0 min. […]

## Wt SA: wild type streptavidin, tetrameric, SEQ ID NO: 20 [reference compound]
Dissociation half-life t1/2=0.693/koff, biotin-fluorescein
  t1/2: 12.5 ± 4.35 h
Dissociation of biotin-fluorescein, excess free biotin 100 μM
  Koff(×10^−3 min^−1): 0.923 ± 0.0253 ×10^−3 min^−1
